Measurements from ChEMBL document CHEMBL5137044, “Expansion of the S-CN-DABO scaffold to exploit the impact on inhibitory activities against the non-nucleoside HIV-1 reverse transcriptase” (Eur J Med Chem, 2022).

Tests used:
[1] = system: Human immunodeficiency virus 1; assay: Antiviral activity against drug-resistant HIV-1 Y188L mutant infected in human MT4 cells assessed as reduction in virus-induced cytopathic effect incubated for 5 days by MTT assay; assay type: functional, organism-based; settings: Human immunodeficiency virus 1, Y188L mutant, MT4, 120 h
[2] = system: Human immunodeficiency virus 1; assay: Antiviral activity against drug-resistant HIV-1 Y181C mutant infected in human MT4 cells assessed as reduction in virus-induced cytopathic effect incubated for 5 days by MTT assay; assay type: functional, organism-based; settings: Human immunodeficiency virus 1, Y181C mutant, MT4, 120 h
[3] = molecular target: Human immunodeficiency virus type 1 reverse transcriptase (Human immunodeficiency virus 1, UniProt Q72547); assay: Inhibition of recombinant wild-type p66/p51 HIV-1 reverse transcriptase incubated for 40 mins by picogreen dye-based spectrofluorometric analysis
[4] = Fold resistance, ratio of EC50 for antiviral activity against drug-resistant HIV-1 L100I mutant infected in human MT4 cells to EC50 for antiviral activity against […] HIV-1 infected in human MT4 cells; assay type: functional
[5] = system: Human immunodeficiency virus 1; assay: Antiviral activity against drug-resistant HIV-1 K103 N mutant infected in human MT4 cells assessed as reduction in virus-induced cytopathic effect incubated for 5 days by MTT assay; assay type: functional, organism-based; settings: Human immunodeficiency virus 1, K103 N mutant, MT4, 120 h
[6] = system: Human immunodeficiency virus 1; assay: Antiviral activity against […] HIV-1 infected in human MT4 cells assessed as reduction in virus-induced cytopathic effect incubated for 5 days by MTT assay; assay type: functional, organism-based; settings: Human immunodeficiency virus 1, MT4, 120 h
[7] = Fold resistance, ratio of EC50 for antiviral activity against drug-resistant HIV-1 K103 N mutant infected in human MT4 cells to EC50 for antiviral activity against […] HIV-1 infected in human MT4 cells; assay type: functional
[8] = Fold resistance, ratio of EC50 for antiviral activity against drug-resistant HIV-1 Y188L mutant infected in human MT4 cells to EC50 for antiviral activity against […] HIV-1 infected in human MT4 cells; assay type: functional
[9] = system: Human immunodeficiency virus 1; assay: Antiviral activity against drug-resistant HIV-1 E138K mutant infected in human MT4 cells assessed as reduction in virus-induced cytopathic effect incubated for 5 days by MTT assay; assay type: functional, organism-based; settings: Human immunodeficiency virus 1, E138K mutant, MT4, 120 h
[10] = Cytotoxicity against human MT4 cells assessed as cell growth inhibition incubated for 5 days by MTT assay; assay type: toxicity, cell-based; settings: time 5 day
[11] = Fold resistance, ratio of EC50 for antiviral activity against drug-resistant HIV-1 Y181C mutant infected in human MT4 cells to EC50 for antiviral activity against […] HIV-1 infected in human MT4 cells; assay type: functional
[12] = Selectivity index, ratio of CC50 for human MT4 cells to EC50 for antiviral activity against NNRTI resistant HIV-1 infected in human MT4 cells; assay type: toxicity, cell-based; settings: read-out: Ratio CC50/EC50
[13] = Fold resistance, ratio of EC50 for antiviral activity against drug-resistant HIV-1 E138K mutant infected in human MT4 cells to EC50 for antiviral activity against […] HIV-1 infected in human MT4 cells; assay type: functional
[14] = system: Human immunodeficiency virus 1; assay: Antiviral activity against drug-resistant HIV-1 L100I mutant infected in human MT4 cells assessed as reduction in virus-induced cytopathic effect incubated for 5 days by MTT assay; assay type: functional, organism-based; settings: Human immunodeficiency virus 1, L100I mutant, MT4, 120 h

| SMILES | EC50 [1] [µM] | EC50 [2] [µM] | IC50 [3] [µM] | Ratio EC50 [4] | EC50 [5] [µM] | EC50 [6] [nM] | Ratio EC50 [7] | Ratio EC50 [8] | EC50 [9] [nM] | CC50 at 120 h [10] [µM] | Ratio EC50 [11] | selectivity ratio [12] | Ratio EC50 [13] | EC50 [14] [nM] |
| --- | --- | --- | --- | --- | --- | --- | --- | --- | --- | --- | --- | --- | --- | --- |
| Cc1c(C(C#N)c2ccccn2)nc(SC(C)C)[nH]c1=O (stereo not given) | > 304 | 51.2 | 9.4 | 31 | > 304 | 1470 | >207 | >207 | 3800 | 304 | 35 | 207 | 3 | 45900 |
| Cc1c(C(C#N)c2cccnc2)nc(SC(C)C)[nH]c1=O (stereo not given) | > 363 | > 363 | 318 | 2 | > 363 | 26200 | >14 | >14 | 54100 | 363 | >14 | 14 | 2 | 47900 |
| Cc1c(C(C#N)c2c(F)cccc2Cl)nc(SC(C)C)[nH]c1=O (stereo not given) | > 58.7 | 1.4 | 0.074 | 58 | 3.3 | 18.4 | 179 | 3191 | 90 | 74.7 | 76 | 4050 | 5 | 1060 |
| Cc1c(C(C#N)c2ccc(Cl)cc2)nc(SC(C)C)[nH]c1=O (stereo not given) | > 70.2 | > 70.2 | 3.37 | >11 | > 70.2 | 1260 | >56 | >56 | 4190 | 70.2 | >56 | 56 | 3 | > 14400 |
| Cc1c(C(C#N)c2cccc(F)c2)nc(SC(C)C)[nH]c1=O (stereo not given) | > 202 | 6.89 | 0.829 | 50 | 65.6 | 268 | 245 | >753 | 960 | 202 | 26 | 754 | 4 | 13500 |
| Cc1cn([C@H]2C[C@H](N=[N+]=[N-])[C@@H](CO)O2)c(=O)[nH]c1=O [ZIDOVUDINE] | 0.0108 | 0.0242 | – | 0.4 | 0.0287 | 22.9 | 1 | 0.5 | 26.8 | – | 1 | > 309 | 1 | 8.4 |
| O=C1Nc2ccc(Cl)cc2[C@@](C#CC2CC2)(C(F)(F)F)O1 [EFAVIRENZ] | 0.205 | 0.0071 | – | – | 0.0942 | – | – | – | 6.2 | – | – | – | – | 37.1 |
| Cc1cc(C#N)cc(C)c1Oc1nc(Nc2ccc(C#N)cc2)nc(N)c1Br [ETRAVIRINE] | – | 0.0162 | – | 4 | 0.0034 | – | 1 | 7 | 9.2 | 4.6 | 6 | > 1620 | 3 | 11.5 |
| Cc1ccnc2c1NC(=O)c1cccnc1N2C1CC1 [NEVIRAPINE] | > 15 | 7.71 | – | – | 8.1 | 170 | – | – | 198 | – | – | – | – | 2570 |
| Cc1c(C(C#N)c2cc(C(F)(F)F)cc(C(F)(F)F)c2)nc(SC(C)C)[nH]c1=O (stereo not given) | > 287 | 186 | 55.1 | >10 | > 287 | 27400 | >10 | >10 | 224000 | 287 | 7 | – | 8 | > 278000 |
| Cc1c(C(C#N)c2ccc(-c3ccccc3)cc2)nc(SC(C)C)[nH]c1=O (stereo not given) | – | – | – | – | – | > 30500 | – | – | – | 30.5 | – | < 1 | – | – |
